Several values for one entry are separate records, joined by “and”; a condition that tells them apart may be missing. Equal entries are not always repeated. Inconclusive results and toxic doses are left out. The calls were made as follows: active = survival T/C of 150% or more; inactive = T/C below 125% in these data. Square brackets hold non-standard residues; d marks the D form. Peptide text beside a SMILES is read from it. * marks the point of attachment. ξ: configuration not given here. Abu = CC[CH](N)C(=O)O; Boc = CC(C)(C)OC(=O)*; ξP = O=C(O)C1CCCN1
System: BDF1 mice, B16 melanoma ip, median survival T/C
Experiment: NCI In Vivo Anticancer Drug Screen. Data for tumor model B16 Melanoma (intraperitoneal) in B6D2F1 (BDF1) mice
Conditions: endpoint: median survival time, higher = longer survival
How it was run: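 Tumor-bearing mice received test compound or vehicle. Survival or tumor size was then measured in both groups. The treated-group figure was divided by the control-group figure.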

[1] = dose: 6.25 mg/kg/injection, schedule: Q01DX009 (ip), vehicle: Klucel (hydroxypropylcellulose) (HPC)
[2] = dose: 100.0 mg/kg/injection, schedule: Q01DX009 (ip), vehicle: saline with Tween-80
[3] = dose: 200.0 mg/kg/injection, schedule: Q01DX009 (ip), vehicle: saline with Tween-80
[4] = dose: 400.0 mg/kg/injection, schedule: Q01DX009 (ip), vehicle: saline with Tween-80
[5] = dose: 12.5 mg/kg/injection, schedule: Q01DX009 (ip), vehicle: Klucel (hydroxypropylcellulose) (HPC)
[6] = dose: 50.0 mg/kg/injection, schedule: Q01DX009 (ip), vehicle: saline with Tween-80
[7] = dose: 50.0 mg/kg/injection, schedule: Q01DX009 (ip), vehicle: saline
[8] = dose: 100.0 mg/kg/injection, schedule: Q01DX009 (ip), vehicle: saline
[9] = dose: 200.0 mg/kg/injection, schedule: Q01DX009 (ip), vehicle: saline
[10] = dose: 25.0 mg/kg/injection, schedule: Q01DX009 (ip), vehicle: saline with Tween-80
[11] = dose: 100.0 mg/kg/injection, schedule: Q01DX009 (ip), vehicle: Klucel (hydroxypropylcellulose) (HPC)
[12] = dose: 400.0 mg/kg/injection, schedule: Q01DX009 (ip), vehicle: saline

Measured: T/C

CC1(C)N=C(N)N=C(N)N1c1ccc(Cl)c(Cl)c1
inactive: [1] 117 % of control | dose: 6.25 mg/kg/injection, schedule: Q04DX003 (ip), vehicle: Klucel (hydroxypropylcellulose) (HPC) 102 % of control | dose: 12.5 mg/kg/injection, schedule: Q04DX003 (ip), vehicle: Klucel (hydroxypropylcellulose) (HPC) 103 % of control | dose: 25.0 mg/kg/injection, schedule: Q04DX003 (ip), vehicle: Klucel (hydroxypropylcellulose) (HPC) 114 % of control | dose: 50.0 mg/kg/injection, schedule: Q04DX003 (ip), vehicle: Klucel (hydroxypropylcellulose) (HPC) 116 % of control

NC(CCSCc1ccccc1)C(=O)O (stereo not drawn)
inactive: [2] 105 % of control | [3] 96 % of control | [4] 87 % of control

O=C1c2ccccc2C(=O)N1CCC[P+](c1ccccc1)(c1ccccc1)c1ccccc1
inactive: dose: 1.56 mg/kg/injection, schedule: Q01DX009 (ip), vehicle: Klucel (hydroxypropylcellulose) (HPC) 100 % of control | dose: 3.12 mg/kg/injection, schedule: Q01DX009 (ip), vehicle: Klucel (hydroxypropylcellulose) (HPC) 102 % of control | [1] 96 % of control | [5] 100 % of control

COB1OB(OC)OB(OC)O1
inactive: [6] 103 % of control | [2] 104 % of control | dose: 100.0 mg/kg/injection, schedule: Q04DX003 (ip), vehicle: saline with Tween-80 105 % of control | [3] 102 % of control | dose: 200.0 mg/kg/injection, schedule: Q04DX003 (ip), vehicle: saline with Tween-80 112 % of control | [4] 98 % of control | dose: 400.0 mg/kg/injection, schedule: Q04DX003 (ip), vehicle: saline with Tween-80 110 % of control

CC(C)NNC(=O)C(N)CCC(=O)O (stereo not drawn)
inactive: dose: 25.0 mg/kg/injection, schedule: Q01DX009 (ip), vehicle: saline 97 % of control | [7] 104 % of control | [8] 95 % of control | [9] 100 % of control

CC1COS(=O)O1 (stereo not drawn)
inactive: dose: 10.0 mg/kg/injection, schedule: Q01DX009 (ip), vehicle: saline sonified 102 % of control | dose: 20.0 mg/kg/injection, schedule: Q01DX009 (ip), vehicle: saline sonified 100 % of control | dose: 40.0 mg/kg/injection, schedule: Q01DX009 (ip), vehicle: saline sonified 102 % of control

COc1ccccc1NC(=O)Nc1c(C)cccc1C
inactive: dose: 100.0 mg/kg/injection, schedule: Q01DX009 (ip), vehicle: gum acacia 101 % of control | dose: 200.0 mg/kg/injection, schedule: Q01DX009 (ip), vehicle: gum acacia 102 % of control | dose: 400.0 mg/kg/injection, schedule: Q01DX009 (ip), vehicle: gum acacia 90 % of control

C/C=C(\C)C(=O)N/N=C\c1cc(Cl)cc(Cl)c1O
inactive: dose: 25.0 mg/kg/injection, schedule: Q01DX009 (ip), vehicle: olive oil, sesame oil, peanut oil 88 % of control | dose: 100.0 mg/kg/injection, schedule: Q01DX009 (ip), vehicle: olive oil, sesame oil, peanut oil 89 % of control | dose: 200.0 mg/kg/injection, schedule: Q01DX009 (ip), vehicle: olive oil, sesame oil, peanut oil 86 % of control

Cc1ccc(C(C)(N=[N+]=[N-])c2ccccc2)cc1C (stereo not drawn)
inactive: [10] 94 % of control | [6] 93 % of control | [2] 90 % of control | [3] 90 % of control

C[C@]12C=CC(=O)C=C1CC[C@@H]1[C@@H]2C(=O)C[C@@]2(C)[C@H]1CC[C@]2(O)C(=O)CO
inactive: dose: 12.5 mg/kg/injection, schedule: Q01DX009 (sc), vehicle: steriod suspending solution 102 % of control | dose: 25.0 mg/kg/injection, schedule: Q01DX009 (sc), vehicle: steriod suspending solution 102 % of control | dose: 50.0 mg/kg/injection, schedule: Q01DX009 (sc), vehicle: steriod suspending solution 89 % of control and 102 % of control and 110 % of control | dose: 50.0 mg/kg/injection, schedule: Q01DX017 (sc), vehicle: steriod suspending solution 104 % of control | dose: 50.0 mg/kg/injection, schedule: Q## X009 (sc), vehicle: steriod suspending solution 102 % of control | dose: 100.0 mg/kg/injection, schedule: Q01DX001 (sc), vehicle: steriod suspending solution 100 % of control | dose: 100.0 mg/kg/injection, schedule: Q01DX009 (sc), vehicle: steriod suspending solution 109 % of control | dose: 100.0 mg/kg/injection, schedule: Q01DX017 (sc), vehicle: steriod suspending solution 97 % of control | dose: 100.0 mg/kg/injection, schedule: Q04DX003 (sc), vehicle: steriod suspending solution 109 % of control | dose: 100.0 mg/kg/injection, schedule: Q04DX005 (sc), vehicle: steriod suspending solution 97 % of control | dose: 100.0 mg/kg/injection, schedule: Q## X009 (sc), vehicle: steriod suspending solution 118 % of control | dose: 200.0 mg/kg/injection, schedule: Q01DX001 (sc), vehicle: steriod suspending solution 95 % of control | dose: 200.0 mg/kg/injection, schedule: Q01DX009 (sc), vehicle: steriod suspending solution 123 % of control | dose: 200.0 mg/kg/injection, schedule: Q04DX003 (sc), vehicle: steriod suspending solution 104 % of control | dose: 200.0 mg/kg/injection, schedule: Q04DX005 (sc), vehicle: steriod suspending solution 106 % of control | dose: 200.0 mg/kg/injection, schedule: Q## X009 (sc), vehicle: steriod suspending solution 106 % of control | dose: 400.0 mg/kg/injection, schedule: Q01DX001 (sc), vehicle: steriod suspending solution 95 % of control | dose: 400.0 mg/kg/injection, schedule: Q04DX003 (sc), vehicle: steriod suspending solution 106 % of control | dose: 400.0 mg/kg/injection, schedule: Q04DX005 (sc), vehicle: steriod suspending solution 109 % of control | dose: 400.0 mg/kg/injection, schedule: Q## X009 (sc), vehicle: steriod suspending solution 106 % of control | dose: 800.0 mg/kg/injection, schedule: Q01DX001 (sc), vehicle: steriod suspending solution 93 % of control

Cc1ccc(NC(=O)Nc2ccc(C)c(NC(=O)Nc3ccc(C)cc3C)c2)c(C)c1
inactive: [11] 91 % of control | dose: 200.0 mg/kg/injection, schedule: Q01DX009 (ip), vehicle: Klucel (hydroxypropylcellulose) (HPC) 96 % of control

COC(=O)C1CCCN1C(=O)CNC(=O)OC(C)(C)C (stereo not drawn) (Boc-Gly-[ξP]-OMe)
inactive: [7] 94 % of control | [8] 103 % of control | [9] 91 % of control | [12] 88 % of control

CCc1cc(C)cc(OC(=O)Nc2ccccc2)c1
inactive: [2] 97 % of control | [3] 93 % of control | [4] 100 % of control

CC(C)(C#N)N1CCCCC1
inactive: dose: 0.03 mg/kg/injection, schedule: Q01DX009 (ip), vehicle: saline 97 % of control | dose: 0.07 mg/kg/injection, schedule: Q01DX009 (ip), vehicle: saline 104 % of control | dose: 0.15 mg/kg/injection, schedule: Q01DX009 (ip), vehicle: saline 98 % of control | dose: 2.5 mg/kg/injection, schedule: Q01DX009 (ip), vehicle: saline 102 % of control

O=C(CCN1CC1)OC1CCCC1
inactive: dose: 0.75 mg/kg/injection, schedule: Q01DX009 (ip), vehicle: Klucel (hydroxypropylcellulose) (HPC) 111 % of control | dose: 1.5 mg/kg/injection, schedule: Q01DX009 (ip), vehicle: Klucel (hydroxypropylcellulose) (HPC) 105 % of control | dose: 3.0 mg/kg/injection, schedule: Q01DX009 (ip), vehicle: Klucel (hydroxypropylcellulose) (HPC) 108 % of control

CC(C)(C)OC(=O)NC(Cc1ccc(OCc2ccccc2)cc1)C(=O)O (stereo not drawn)
inactive: dose: 6.25 mg/kg/injection, schedule: Q01DX009 (ip), vehicle: saline with Tween-80 104 % of control | dose: 12.5 mg/kg/injection, schedule: Q01DX009 (ip), vehicle: saline with Tween-80 97 % of control | [10] 96 % of control | [6] 95 % of control | [2] 87 % of control

CCC(N)C(=O)NC(C(N)=O)C(C)C (stereo not drawn) (H-[Abu]-Val-NH2; configuration not given here)
inactive: [7] 90 % of control | [8] 100 % of control | [9] 110 % of control | [12] 100 % of control

CNC(C)Cc1ccccc1 (stereo not drawn)
inactive: dose: 3.75 mg/kg/injection, schedule: Q01DX009 (ip), vehicle: saline 95 % of control | dose: 15.0 mg/kg/injection, schedule: Q01DX009 (ip), vehicle: saline 95 % of control | dose: 30.0 mg/kg/injection, schedule: Q01DX009 (ip), vehicle: saline 95 % of control

c1cc(OCC2CO2)ccc1OCC1CO1 (stereo not drawn)
inactive: [5] 100 % of control | dose: 25.0 mg/kg/injection, schedule: Q01DX009 (ip), vehicle: Klucel (hydroxypropylcellulose) (HPC) 105 % of control | dose: 50.0 mg/kg/injection, schedule: Q01DX009 (ip), vehicle: Klucel (hydroxypropylcellulose) (HPC) 110 % of control | [11] 120 % of control

CC(=O)OCc1cccnc1
inactive: [7] 97 % of control | [8] 101 % of control | [9] 106 % of control | [12] 107 % of control
